Data on three molecules can be found in US20030143635A1, “Assay for detection of transferase enzyme activity in drug screening” (AstraZeneca AB, priority 2000, published 2003).

A word on the % Inhibition: it is the change of the read-out against control, counted positive when it falls. One may read the remaining activity as the signal under treatment as a percentage of the control signal. Read a high remaining activity as a small loss of activity.

The test system of assay [1] is translocase and transferase enzymes. The assay is classed as biochemical, Escherichia coli. The settings on record: 100 μM test compound; E. coli AMA1004 membranes; 37° C., 30 min; after subtracting 0% reaction readings.
Procedure: (§1) (i) The wells of a microtitre plate were individually filled with a total volume of 25 μl of a reaction mixture comprising an aqueous buffer solution of 50 mM HEPES-ammonia (N-[2-Hydroxyethyl]piperazine-N′-[2-ethanesulfonic acid]) (pH 7.5), and 10 mM magnesium chloride 15 μM UDP-MurNAc-L-alanine-γ-D-glutamic acid-m-diaminopimelic acid-D-alanine-D-alanine, 2.5 μM tritiated UDP-N-acetyl glucosamine (0.2 μCi per well), 6 μg of Escherichia coli AMA1004 cell membranes prepared as described below and a solution of test compound (e.g. Tunicamycin, Vancomycin) of varying concentration in 4% dimethylsulphoxide.
(§2) Four wells of the microtitre plate were used as controls: two wells contained no UDP-N-acetylmuramylpentapeptide (0% reaction controls) and a further two wells contained no test compound (100% reaction controls).
(§3) The microtitre plate was incubated at 37° C. for 30 min and thereafter 5 μl of ethylenediaminetetraacetic acid (EDTA) was added to give a final EDTA concentration of 15 mM.
(§4) (ii) After addition of the EDTA, 170 μl of an aqueous suspension of wheatgerm agglutinin-coated scintillation proximity assay beads comprising 500 μg beads in a solution of HEPES-ammonia, pH 7.5, was added to each well such that the final concentration of HEPES-ammonia was 50 mM.
(§5) The plate was left for 3 hours/overnight at room temperature before being counted in the “Microbeta Trilux” counter.
A further assay concerns the target T1, transferase enzyme (Escherichia coli, UniProt P17443).
T1 sequence (P17443 1-355): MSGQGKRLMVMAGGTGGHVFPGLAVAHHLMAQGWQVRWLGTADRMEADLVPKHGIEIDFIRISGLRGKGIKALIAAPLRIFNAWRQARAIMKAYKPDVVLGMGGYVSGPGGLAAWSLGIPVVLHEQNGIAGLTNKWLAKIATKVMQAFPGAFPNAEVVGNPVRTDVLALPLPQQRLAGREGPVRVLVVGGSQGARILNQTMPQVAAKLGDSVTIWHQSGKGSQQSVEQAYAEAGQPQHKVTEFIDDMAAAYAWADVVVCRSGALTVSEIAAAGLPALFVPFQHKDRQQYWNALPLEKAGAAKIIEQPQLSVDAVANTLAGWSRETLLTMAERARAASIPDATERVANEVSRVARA
Nature of the assay: Scintillation proximity assay of the transferase alone, with membranes of E. coli AMA1004 ΔponB::SpcR and pre-formed Lipid I (Example 4). In kind it is biochemical. The settings on record: Tunicamycin 10 μg/ml present, 37° C., 5 min, after subtracting 0% reaction readings. How it is done: Microbiol., (1985), 131, 2839-2845. The plate was incubated for 20 min at 37° C.
(ii) Tunicamycin was then added to a final concentration of 10 μg/ml, followed by a test compound (e.g. Vancomycin or Nisin) of varying concentration in dimethyl sulphoxide. Nisin and Vancomycin are known antagonists of the transferase enzyme.
(iii) Then to the reaction well, in a 5 μl volume, the substrate for the transferase was added: 2.5 μM tritiated UDP-N-acetyl glucosamine (0.5 μCi per well). The microtitre plate was incubated for 5 min at 37° C.
(iv) The reaction was terminated by diluting out the radiolabel i.e. by addition of 25 μl of 200 μM unlabelled UDP-GlcNAc.

Assay [2] has as its target T2, translocase and transferase enzymes (Escherichia coli, UniProt P0A6W3).
T2 sequence (P0A6W3 1-360): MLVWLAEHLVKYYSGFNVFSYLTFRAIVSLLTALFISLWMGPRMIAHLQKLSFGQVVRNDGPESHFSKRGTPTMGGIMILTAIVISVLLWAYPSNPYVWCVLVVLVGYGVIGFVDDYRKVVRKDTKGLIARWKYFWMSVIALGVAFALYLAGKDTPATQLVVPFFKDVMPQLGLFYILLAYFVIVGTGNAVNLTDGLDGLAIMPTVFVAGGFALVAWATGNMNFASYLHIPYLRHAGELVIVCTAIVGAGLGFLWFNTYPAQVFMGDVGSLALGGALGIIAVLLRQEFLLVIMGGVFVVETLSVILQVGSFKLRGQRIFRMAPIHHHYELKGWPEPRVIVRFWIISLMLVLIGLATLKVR
In kind it is biochemical. The following applies: 6 μg/ml test compound; E. coli AMA1004 membranes; 37° C., 30 min; after subtracting 0% reaction readings.
Procedure: as §1, §2, §3, §4, §5

With `CN[C@H](CC(C)C)C(=O)N[C@H]1C(=O)N[C@@H](CC(N)=O)C(=O)N[C@H]2C(=O)N[C@H]3C(=O)N[C@H](C(=O)N[C@H](C(=O)O)c4cc(O)cc(O)c4-c4cc3ccc4O)[C@H](O)c3ccc(c(Cl)c3)Oc3cc2cc(c3O[C@@H]2O[C@H](CO)[C@@H](O)[C@H](O)[C@H]2O[C@H]2C[C@](C)(N)[C@H](O)[C@H](C)O2)Oc2ccc(cc2Cl)[C@H]1O` [Vancomycin], the “% Inhibition” value in assay [1] is recorded as 82%. In addition, the remaining activity at 100 µM at transferase enzyme (100 μM test compound) was ~50%.

With Tunicamycin, the “% Inhibition” value in assay [2] amounted to 104%.

As to Nisin, the “% Enzyme Activity” value at transferase enzyme (10 μg/ml test compound) was “˜30%”.
